US10945972B2, “Particulate materials” (Nektar Therapeutics, priority 2002, dated 2021)

How the values were obtained:
Format in all cases: physicochemical
[1] = AEROFLOW powder avalanching (Example 8); conditions: listed as TBS 2
Experimental: An AEROFLOW™ powder avalanching apparatus (Amherst Process Instruments, API, Amherst, USA) was employed to analyze the dynamic avalanching behaviour of micronized and SC processed TBS samples. The AEROFLOW™ apparatus consists of a transparent rotating drum with a port at the front. A white light source is positioned in front of the drum and a masked array of photocells is behind the drum. To measure avalanching, 50 ml of the drug powder was added to the drum, which is about 15% of its total volume to ensure good powder mixing during the operation. As the drum rotates, the powder bed is carried upwards until an unstable state is reached and an avalanche occurs.
The time between successive avalanches was recorded by the projection of the light beam through the drum onto the photocell array. The photocells generated a voltage dependent on the amount of light falling on the cells and the area of unmasked photocells shielded from the light source by the powder. The voltage output (transmitted light intensity) was recorded by a computer, which translates the output as powder movement using a technique disclosed in B. H. Kaye. Characterizing the flowability of a powder using the concepts of fractal geometry and chaos theory, Part. Part. Charact. 14: 53-66 (1997). Each TBS sample was tested in duplicate and mean avalanche time and irregularity (scatter) of avalanches were recorded.

[2] = Differential scanning calorimetry (Example 8); conditions: DSC, 10° C. min^−1
Experimental: Prior to sample analysis, a baseline was obtained which was used as a background. […] Temperature and enthalpy were calibrated with the standard materials indium (melting point=156.6° C.) and zinc (melting point=419.5° C.). Samples (1-10) were accurately weighed into pierced, crimped aluminium pans and heated at 10° C. min^−1 over a heating range of 25-290° C. under a nitrogen purge. A chiller unit was used in conjunction with the calorimeter to attain the lower temperatures.

[3] = Inverse gas chromatography surface energy (Example 1); conditions: 303K
Text: For TBS and FHBr powders, IGC was done using a Hewlett Packard Series 6890 instrument which was specifically modified for IGC measurements by Surface Measurement Systems Ltd (Manchester, UK). The IGC method is described in detail by Tong et al. 2001. (Tong H. H. Y., B. Y. Shekunov, P. York, A. H. L. Chow, 2001. Pharm. Res. 18, 852.) Triplicate measurements in separate packed columns were made. […] The γS^D and ΔGA values were obtained at 303K.

[4] = Isothermal microcalorimetry, TAM with RH ramp (Example 8); conditions: 25° C., RH ramp 0 to 90% at 3% RH/hr; listed as TBS2
Experimental: A Thermal Activity Monitor (TAM, model 2277; Thermometric A B, Jrflla, Sweden) was used to measure the calorimetric heat flow (μW) vs. % RH profile of each sample. A RH-perfusion cell (Model 2255-120) accessory for the TAM was used to control RH within the sample vessel. The carrier gas, dry N2, was flowed at a constant rate (1.48 cm^3/min). All experiments were performed at 25° C. About 100 to 105 mg accurately weighed of each powder were placed in a stainless steel ampoule, attached to the RH perfusion cell, and then dried under 0% RH until a stable heat flow signal was reached (e.g., a signal within the range of −1 to +1 μW). The RH was then increased in a linear ramp from 0 to 90% over the following 30 hours (i.e., 3% RH/hr). The heat flow arising from interactions of water vapor with the solid sample was measured as a function of time. Since RH changed with time in a linear fashion, the heat flow was also known as a function of RH.
The TAM measures the total heat flow in power, P, produced from either a physical or chemical reaction. In this study, the calorimetric power is proportional to the rate of moisture sorption or desorption, crystallization, and/or other processes. Exothermic events are measured as a deflection in the positive y-axis direction. Although crystallization is an exothermic process, it can be observed as a net endothermic process. During crystallization, there is an exotherm due to crystallization and a simultaneous endotherm due to desorption of previously sorbed moisture. The TAM profile gives the resultant of these processes.

[5] = Laser diffraction HELOS/RODOS of TBS (Example 8); conditions: 2 bar, listed as TBS 2
Experimental: A small amount of TBS powder was analysed using a laser diffraction RODOS/VIBRI dispersing system (HELOS/RODOS, Sympatec GmbH, Clausthal-Zellerfeld, Germany). The instrument consisted of a laser sensor HELOS and a RODOS dry-powder air-dispersion system (Sympatec GmbH, Clausthal-Zellerfeld, Germany). Different measurement ranges of the laser sensor were provided by interchangeable objectives R1 (0.1-35 μm) and R2 (0.25-87.5 μm). The rate of powder dispersion was controlled by adjusting the pressure of the compressed air flow. A pressure of 2 bar was sufficient to achieve deagglomeration of primary particles without attrition.

Irregularity of flow ([1]; 100 sec/rev): 1.17 s
Mean time to avalanche ([1]; 100 sec/rev): 3.30 s
Irregularity of flow ([1]; 145 sec/rev): 2.12 s
Mean time to avalanche ([1]; 145 sec/rev): 4.91 s
Enthalpy of Fusion ([2]; listed as TBS 2): 88.68 J/g
Enthalpy of Fusion ([2]; listed as TBS2): 88.68 J/g
γs^D (mJ/m^2) [3]: 55.05 mJ/m^2
ΔGA (kJ/mol) Acetone ([3]; probe acetone): 10.42 kJ/mol
ΔGA (kJ/mol) Chloroform ([3]; probe chloroform): 1.21 kJ/mol
ΔGA (kJ/mol) Dioxane ([3]; probe dioxane): 14.20 kJ/mol
ΔGA (kJ/mol) Ethyl acetate ([3]; probe ethyl acetate): 13.76 kJ/mol
ΔGA (kJ/mol) Toluene ([3]; probe toluene): 2.85 kJ/mol
RH of thermal event in TAM profile [4]: about 85 % RH
Sympatec D4, 3 (μm) [5]: 3.43 μm
Structure (SMILES): CC(C)(C)NCC(O)c1cc(O)cc(O)c1 (centres unmarked) [TSB SEDS, terbutaline sulphate]
